Experimental data as given in patent USRE47689E1, “Compounds for treating spinal muscular atrophy” (PTC Therapeutics, Inc., priority 2011, dated 2019).
Where two headings read alike, the source gives them in different places.

What was measured:
[1] = test system: Smn protein; test: Smn protein assay in cultured cells (SMN HTRF); assay type: cell-based, human; settings: 48 hours; for maximum fold (Fold) increase of Smn protein: SMA patient fibroblast cells, 7-point concentration data, fold increase relative to vehicle control (SMN HTRF); for EC1.5x (concentration giving 1.5-fold Smn protein increase): SMA Type 1 patient fibroblast cells (GM03813), 7-point concentration curve, SMN HTRF, concentration producing 1.5 times Smn protein vs DMSO vehicle control, read-out: EC1.5x for Smn protein expression
How it was run: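 Smn in SMA fibroblast lysates, measured by anti-SMN HTRF after 48 h compound exposure; EC1.5x from fold change over vehicle.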

[2] = test system: SMN2 minigene (full length SMN2 minigene mRNA containing SMN2 exon 7); test: SMN2 minigene mRNA splicing RT-qPCR assay in cultured cells; assay type: cell-based, human; settings: Homo sapiens, HEK293-H, read-out: EC1.5x for production of full length SMN2 mRNA
How it was run: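 Lysates → one-step RT-qPCR, minigene-specific primers (0.4 μM final) + GAPDH multiplex, 40 cycles. FL/GAPDH vs DMSO; EC1.5x, star-binned.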

[3] = HEK293H cells stably transfected with SMN2-A minigene, 24 hours, 7-point concentration curve, 1.5-fold relative to vehicle-treated cells

Compound | maximum fold (Fold) increase of Smn protein [1] | EC (1.5-fold) [2, 3] | melting point | EC1.5x (concentration giving 1.5-fold Smn protein increase) [1] | EC (1.5-fold) ([2]; 24 h)
Cc1cn2cc(-c3cc4ccc(N5CCCN(C(C)C)CC5)cc4oc3=O)cc2c(C)n1 [Compound 754, 3-(1,3-dimethylpyrrolo[1,2-a]pyrazin-7-yl)-7-[4-(propan-2-yl)-1,4-diazepan-1-yl]-2H-chromen-2-one] | *** (fold increase between >1.35 and ≤1.5) | < 0.1 µM | 115 to 118 °C |  | 
Cc1cn2cc(-c3cc4ccc(N5CC(CN(C)C)C5)cc4oc3=O)nc2c(C)n1 [Compound 966, 7-{3-[(dimethylamino)methyl]azetidin-1-yl}-3-(6,8-dimethylimidazo[1,2-a]pyrazin-2-yl)-2H-chromen-2-one] | **** (fold increase between >1.5 and ≤1.65) | < 0.1 µM | 150 to 152 °C | < 300 nM | 
CN1CCN(c2ccc3cc(-c4cn5cc(C6CC6)cc(F)c5n4)c(=O)oc3c2)CC1 [Compound 504, 3-(6-cyclopropyl-8-fluoroimidazo[1,2-a]pyridin-2-yl)-7-(4-methylpiperazin-1-yl)-2H-chromen-2-one] | * (maximum fold increase of ≤1.2) | 1 to 3 µM | 277 to 287 °C |  | 
COCCNCCCc1ccc2cc(-c3cn4cc(C)nc(C)c4n3)c(=O)oc2c1 [Compound 931, 3-(6,8-dimethylimidazo[1,2-a]pyrazin-2-yl)-7-{3-[(2-methoxyethyl)amino]propyl}-2H-chromen-2-one] | **** (fold increase between >1.5 and ≤1.65) | < 0.1 µM | 147 to 150 °C | 300 to 1000 nM | 
Cc1cn2cc(-c3cc4ccc(C5CCN(C(C)C)CC5)cc4oc3=O)nc2c(C)n1 [Cpd 773, 3-(6,8-dimethylimidazo[1,2-a]pyrazin-2-yl)-7-[1-(propan-2-yl)piperidin-4-yl]-2H-chromen-2-one] | **** (fold increase between >1.5 and ≤1.65) | < 0.1 µM | 206 to 211 °C | < 300 nM | 
Cc1cn2cc(-c3cc4ccc(N5CCN(C6COC6)CC5)cc4oc3=O)nc2c(C)n1 [Compound 823, 3-(6,8-dimethylimidazo[1,2-a]pyrazin-2-yl)-7-[4-(oxetan-3-yl)piperazin-1-yl]-2H-chromen-2-one] | **** (fold increase between >1.5 and ≤1.65) | 0.3 to 1 µM | 230 to 235 °C | 1000 to 3000 nM | 
Cc1cc(Cl)c2nc(-c3cc4ccc(N5C[C@@H](C)N[C@@H](C)C5)cc4oc3=O)cn2c1 [Compound 342, 3-(8-chloro-6-methylimidazo[1,2-a]pyridin-2-yl)-7-[(3R,5S)-3,5-dimethylpiperazin-1-yl]-2H-chromen-2-one] | ** (fold increase between >1.2 and ≤1.35) | 0.1 to 0.3 µM | 258 to 263 °C |  | 
Cc1cn2cc(-c3cc4ccc(CCCCN(C)C)cc4oc3=O)nc2c(C)n1 [Cpd 902, 7-[4-(dimethylamino)butyl]-3-(6,8-dimethylimidazo[1,2-a]pyrazin-2-yl)-2H-chromen-2-one] | ***** (fold increase >1.65) | < 0.1 µM | 190 to 193 °C | < 300 nM | 
Cc1cn2cc(-c3cc4ccc(N5CCN(C(C)C)CC5)cc4oc3=O)nc2c(C)n1 [Compound 792, 3-(6,8-dimethylimidazo[1,2-a]pyrazin-2-yl)-7-[4-(propan-2-yl)piperazin-1-yl]-2H-chromen-2-one] | **** (fold increase between >1.5 and ≤1.65) | < 0.1 µM | 240 to 242 °C | < 300 nM | 
CCN1CCC[C@@H]2CN(c3ccc4cc(-c5cn6cc(C)nc(C)c6n5)c(=O)oc4c3)C[C@@H]21 [Compound 786, 3-(6,8-dimethylimidazo[1,2-a]pyrazin-2-yl)-7-[(4aR,7aR)-1-ethyloctahydro-6H-pyrrolo[3,4-b]pyridin-6-yl]-2H-chromen-2-one] | **** (fold increase between >1.5 and ≤1.65) | < 0.1 µM | 215 to 221 °C | < 300 nM | 
Cc1cc2cc(-c3cc4ccc(N5CCN(CCO)CC5)cc4oc3=O)oc2c(C)n1 [Compound 774, 3-(5,7-dimethylfuro[2,3-c]pyridin-2-yl)-7-[4-(2-hydroxyethyl)piperazin-1-yl]-2H-chromen-2-one] | **** (fold increase between >1.5 and ≤1.65) | < 0.1 µM | 203 to 205 °C | < 300 nM | 
O=c1oc2c(F)c(N3CCNCC3)ccc2cc1-c1ccccn1 [Compound 155, 8-fluoro-7-(piperazin-1-yl)-3-(pyridin-2-yl)-2H-chromen-2-one] | * (maximum fold increase of ≤1.2) |  | 147 to 153 °C |  | 3 to 30 µM
CN1CCN(c2ccc3cc(-c4cn5cc(Cl)ccc5n4)c(=O)oc3c2)CC1 [Compound 94, 3-(6-chloroimidazo[1,2-a]pyridin-2-yl)-7-(4-methylpiperazin-1-yl)-2H-chromen-2-one] | *** (fold increase between >1.35 and ≤1.5) | 3 to 30 µM | 290 to 292 °C |  | 
O=c1oc2cc(N3CCNCC3)ccc2cc1Nc1ccc(Cl)cn1 [Compound 65, 3-[(5-chloropyridin-2-yl)amino]-7-(piperazin-1-yl)-2H-chromen-2-one] | * (maximum fold increase of ≤1.2) | 0.3 to 1 µM | 253 to 255 °C |  | 
Cc1ccc2nc(-c3cc4ccc(CN5CCC(O)C5)cc4oc3=O)cn2c1 (centres unmarked) [Compound 253, 7-[(3-hydroxypyrrolidin-1-yl)methyl]-3-(6-methylimidazo[1,2-a]pyridin-2-yl)-2H-chromen-2-one] | * (maximum fold increase of ≤1.2) | 1 to 3 µM | 227 to 230 °C |  | 
CCc1cn2cc(-c3cc4ccc(N5CCNCC5)cc4oc3=O)nc2s1 [Compound 428, 3-(2-ethylimidazo[2,1-b][1,3]thiazol-6-yl)-7-(piperazin-1-yl)-2H-chromen-2-one] | * (maximum fold increase of ≤1.2) | 1 to 3 µM | 231 to 236 °C |  | 
Cc1cc(C)c2nc(-c3cc4ccc(N5CCCN(C)CC5)cc4oc3=O)cn2c1 [Compound 389, 3-(6,8-dimethylimidazo[1,2-a]pyridin-2-yl)-7-(4-methyl-1,4-diazepan-1-yl)-2H-chromen-2-one] | *** (fold increase between >1.35 and ≤1.5) | 0.3 to 1 µM | 164 to 169 °C |  | 
CN1CCCN(c2cc(F)c3cc(-c4cn5ccsc5n4)c(=O)oc3c2)CC1 [Compound 373, 5-fluoro-3-(imidazo[2,1-b][1,3]thiazol-6-yl)-7-(4-methyl-1,4-diazepan-1-yl)-2H-chromen-2-one] | **** (fold increase between >1.5 and ≤1.65) | < 0.1 µM | 205 to 207 °C | 300 to 1000 nM | 
COc1ccc(-c2cc3c(F)cc(N4C[C@@H]5C[C@H]4CN5)cc3oc2=O)cc1OC [Compound 446, 7-[(1S,4S)-2,5-diazabicyclo[2.2.1]hept-2-yl]-3-(3,4-dimethoxyphenyl)-5-fluoro-2H-chromen-2-one] | * (maximum fold increase of ≤1.2) | 3 to 30 µM | 239 to 241 °C |  | 
CCc1cn2cc(-c3cc4ccc(N5CCCN(C)CC5)cc4oc3=O)nc2s1 [Compound 431, 3-(2-ethylimidazo[2,1-b][1,3]thiazol-6-yl)-7-(4-methyl-1,4-diazepan-1-yl)-2H-chromen-2-one] | * (maximum fold increase of ≤1.2) | 1 to 3 µM | 188 to 191 °C |  | 
O=c1oc2cc(N3CCNCC3)ccc2cc1-c1cn2ccncc2n1 [Cpd 456, 3-(imidazo[1,2-a]pyrazin-2-yl)-7-(piperazin-1-yl)-2H-chromen-2-one] | **** (fold increase between >1.5 and ≤1.65) | < 0.1 µM | 258 to 260 °C | 1000 to 3000 nM | 
Cc1nc(Cl)cn2cc(-c3cc4ccc(N5CCN[C@@H](C)C5)cc4oc3=O)nc12 [Compound 713, 3-(6-chloro-8-methylimidazo[1,2-a]pyrazin-2-yl)-7-[(3S)-3-methylpiperazin-1-yl]-2H-chromen-2-one] | *** (fold increase between >1.35 and ≤1.5) | < 0.1 µM | 235 to 238 °C | < 300 nM | 
CC(C)NC(C)c1ccc2cc(-c3nc4ccccc4s3)c(=O)oc2c1 (centres unmarked) [Compound 144, 3-(1,3-benzothiazol-2-yl)-7-[1-(propan-2-ylamino)ethyl]-2H-chromen-2-one] | * (maximum fold increase of ≤1.2) | 1 to 3 µM | 135 to 137 °C |  | 
